# Earlier results, collected in publication PMC2920223 (Analytical chemistry, 2010).
# Columns and labels:
# [1] = exogenous YGGFM, rat striatal slices
# [2] = tested on: puromycin-sensitive aminopeptidases (PSA, NAP and NAP2); details: at 20 μM puromycin
# [3] = tested on: aminopeptidases (aminopeptidase N (APN), puromycin-sensitive aminopeptidase (PSA), NAP and NAP2); details: rat
compound,measurement,setting,value
YGGFM,hydrolysis at Tyr-Gly as share of the total hydrolysis,[1],about 80%
COc1ccc(C[C@H](N)C(=O)N[C@H]2[C@@H](O)[C@H](n3cnc4c(N(C)C)ncnc43)O[C@@H]2CO)cc1 [puromycin],inhibition of puromycin-sensitive aminopeptidases,[2],effectively inhibited
YGGFL,cleaved bond,[3],tyrosine-Gly
